Laboratory results published in patent US20240336617A1, “Substituted Bimane Compounds and Methods of Use Thereof” (THE TRUSTEES OF THE UNIVERSITY OF PENNSYLVANIA, priority 2023, published 2024).

Experiments:
[1] = Fluorescence (emission) measurements; assay type: physicochemical;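 also: fluorescence emission spectra recorded on a spectrofluorometer, with each compound excited at its own absorption maximum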
Method: The fluorescence spectrum of each derivative (150 μL) was measured on a Photon Technology International (PTI) QuantaMaster™ 40 fluorescence spectrometer by excitation at the maximum absorption wavelength for each compound.
The fluorescence spectrum of each derivative (150 μL) was measured on a Photon Technology International (PTJ) QuantaMaster™ 40 fluorescence spectrometer by excitation at the maximum absorption wavelength for each compound.

[2] = Molar absorptivity determination; assay type: physicochemical;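 also: molar absorptivity derived from UV-Vis absorbance spectra recorded for each derivative on a spectrometer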
Method: The absorbance spectrum of each derivative (150 μL) was measured on a Thermo Scientific Genesys 150 UV-Vis spectrometer, using 50:50 ACN/PBS as a blank.
Molar absorptivity determination. […] The absorbance spectrum of each derivative (150 μL) was measured on a Thermo Scientific Genesys 150 UV-Vis spectrometer, using 50:50 ACN/PBS as a blank.

[3] = Fluorescent quantum yield (QY) measurements; assay type: physicochemical; details: for Fluorescence QY: ACN/PBS buffer (1:1 v/v); for Fluorescence quantum yield: in ACN
Method: For each QY measurement, the incident excitation light spectrum was collected with 1 mL of solvent. […] Using the JASCO Quantum Yield Software, the dye QY was calculated by dividing the dye fluorescence intensity by the difference in incident light intensity in the presence and absence of dye. The minimum excitation wavelength for a full excitation incident spectrum using this setup is 360 nm.
Fluorescent quantum yield (QY) measurements. For each QY measurement, the incident excitation light spectrum was collected with 1 mL of solvent. After measuring the incident light intensity, dye (3 and 5a-5k) was added to the solvent from a concentrated stock solution to a final concentration of […] and the new spectrum (fluorescence intensity and new incident light intensity) was collected. Using the JASCO Quantum Yield Software, the dye QY was calculated by dividing the dye fluorescence intensity by the difference in incident light intensity in the presence and absence of dye. The minimum excitation wavelength for a full excitation incident spectrum using this setup is 360 nm.

[4] = Fluorescence lifetime measurements (TCSPC); assay type: physicochemical; details: for Fluorescence Lifetime: ACN/PBS buffer (1:1 v/v); for Lifetime: ACN/PBS buffer (50:50 v/v), excitation 340 nm
Method: Time correlated single photon counting (TCSPC) measurements of fluorescence lifetime decays for 100 μM solutions of dyes (6, 7c, 7e, 7f, and 7g) in ACN/PBS buffer (50:50 v/v) were collected with the PTI Quantamaster™ 40 using a pulsed LED with a maximum emission at 340 nm. Fluorescence emission was collected at the indicated wavelength for each dye with 20 nm slit widths. The instrument response function (IRF) was collected under identical conditions. Data analysis was performed with FluoFit software (PicoQuant GmbH; Berlin, Germany) using an exponential decay model.
Fluorescence lifetime measurements. Time correlated single photon counting (TCSPC) measurements of fluorescence lifetime decays for 100 μM solutions of dyes (3 and 5c-f) in ACN/PBS buffer (50:50 v/v) were collected with the PTI Quantamaster™ 40 using a pulsed LED with a maximum emission at 340 nm. Fluorescence emission was collected at the indicated wavelength for each dye with 20 nm slit widths. The instrument response function ([…]) was collected under identical conditions. Data analysis was performed with FluoFit software (PicoQuant GmbH; Berlin, Germany) using an exponential decay model. […] FIG. 64D Fluorescence spectra of 5i-5k. […] Fluorescence spectra were measured at their maximum absorption wavelength. FIGS. 66A-66K show representative QY acquisitions of 3 and 5a-f, 5h-k in ACN/PBS buffer (50:50). All had consistent excitation (360 nm) and spectral collection (350-800 nm) parameters. Final concentration of the probe is 500 μM. Black line indicates incident light and blue line indicates sample spectrum. […] All had consistent excitation (360 nm, slit width 10 nm) and spectral collection (350-800 nm) parameters. Final concentration of the probe is 500 µM. Black line indicates incident light and blue line indicates sample spectrum. FIG. 68: Effect of pH on absorption and emission of 5h and 5j. […] For pH screening of 5h and 5j, PBS buffer solutions were prepared, then adjusted the pH 2, 4, and 7 by adding 6 M hydrochloric acid, pH 9 and 11 by adding 5 M sodium hydroxide. Emission spectra were measured by the excitation wavelength 354 nm for 5h and 385 nm for 5j. […] Lifetime measurements with exponential fits shown at left and residuals after fitting shown at right.

[5] = Absorbance measurements (UV-Vis); details: for Absorbance Wavelength: ACN:PBS buffer (50:50 v/v); for Abs. λabs: 25 μM
[6] = 25 μM in ACN/PBS buffer (1:1 v/v), pH 7.4
[7] = ACN/PBS buffer (1:1 v/v), pH 7.4
[8] = in ACN, at maximum absorption wavelength

| Emission λmax [1, 6] [nm] | Stokes shift ([1]; ACN/PBS buffer (1:1 v/v)) [nm] | Stokes shift ([1]; in ACN) [nm] | Molar Absorptivity (ε) [2, 7] [M⁻¹ cm⁻¹] | Molar Absorptivity (ε) [2, 8] [M⁻¹ cm⁻¹] | Fluorescence QY [3] [%] | Fluorescence quantum yield [3] [%] | Fluorescence quantum yield ([3]; Table S12) [%] | Absorbance λmax ([5]; 25 μM in ACN) [nm] | Absorbance λmax [5, 6] [nm] | Absorbance Wavelength ([5]; Table 11) [nm] | Absorbance Wavelength ([5]; Table S14) [nm] | Stokes shift ([1]; ACN only) [nm] | Stokes shift ([1]; ACN:PBS (50:50 v/v)) [nm] | ε ([2]; ACN only) [M⁻¹ cm⁻¹] | ε ([2]; ACN:PBS (50:50 v/v)) [M⁻¹ cm⁻¹] | Q.Y. ([3]; ACN only) [%] | Q.Y. ([3]; ACN:PBS (50:50 v/v)) [%] | Abs. λabs ([5]; ACN only) [nm] | Abs. λabs ([5]; ACN:PBS (50:50 v/v)) [nm] | SMILES | other results |
| --- | --- | --- | --- | --- | --- | --- | --- | --- | --- | --- | --- | --- | --- | --- | --- | --- | --- | --- | --- | --- | --- |
| 502 | 181 | 177 | 23796 | 28940 | 2.5 | 2.8 | 2.8 | 315 | 321 | 321 | 321 | – | – | – | – | – | – | – | – | Cc1c(C)n2c(/C=C/c3ccc(F)cc3)c(C)c(=O)n2c1=O [Compound 7c, (E)-3-(4-fluorostyryl)-2,5,6-trimethyl-1H,7H-pyrazolo[1,2-a]pyrazole-1,7-dione] | Fluorescence Lifetime [4]: 1.07 ns; Lifetime ([4]; Table 4): 1.07 ± 0.003 ns; Lifetime ([4]; Table S13): 1.07 ± 0.003 ns |
| 468 | 133 | 100 | 36955 | 37871 | 0.1 | 0.2 | 0.2 | 332 | 335 | 335 | 335 | – | – | – | – | – | – | – | – | Cc1c(C)n2c(/C=C/c3ccc([N+](=O)[O-])cc3)c(C)c(=O)n2c1=O [Compound 7a, (E)-2,3,6-trimethyl-5-(4-nitrostyryl)-1H,7H-pyrazolo[1,2-a]pyrazole-1,7-dione] | Emission λmax ([1]; 25 μM in ACN): 432 nm; Emission λem ([1]; 25 μM in ACN, Table S12): 432 nm; fluorescence quantum yield (QY) ([3]; in ACN/PBS): essentially non-fluorescent; λabs ([5]; ACN/PBS): 335 nm |
| – | – | – | – | – | – | – | – | – | – | – | – | 229 | 99 | 26667 | 27587 | 0.1 | 0.06 | 346 | 349 | Cc1c(C)n2c(/C=C/c3nc4ccc([N+](=O)[O-])cc4s3)c(C)c(=O)n2c1=O [Compound 8a, (E)-2,3,6-trimethyl-5-(2-(6-nitrobenzo[d]thiazol-2-yl)vinyl)-1H,7H-pyrazolo[1,2-a]pyrazole-1,7-dione] | Em. λem ([1]; ACN:PBS (50:50 v/v), 25 μM): 448 nm |
| – | – | – | – | – | – | – | – | – | – | – | – | 192 | 185 | 32612 | 31088 | 0.56 | 0.21 | 340 | 345 | Cc1c(C)n2c(/C=C/c3nc4ccc(F)cc4s3)c(C)c(=O)n2c1=O [Compound 8b, (E)-3-(2-(6-fluorobenzo[d]thiazol-2-yl)vinyl)-2,5,6-trimethyl-1H,7H-pyrazolo[1,2-a]pyrazole-1,7-dione] | – |
| 503 | 171 | 165 | 21164 | 24426 | 3.0 | 3.4 | 3.4 | 325 | 332 | 332 | 332 | – | – | – | – | – | – | – | – | Cc1ccc(/C=C/c2c(C)c(=O)n3c(=O)c(C)c(C)n23)cc1 [Compound 7f, (E)-2,3,6-trimethyl-5-(4-methylstyryl)-1H,7H-pyrazolo[1,2-a]pyrazole-1,7-dione] | Fluorescence Lifetime [4]: 1.28 ns; Lifetime ([4]; Table 4): 1.28 ± 0.004 ns; Lifetime ([4]; Table S13): 1.28 ± 0.004 ns |
| 505 | 149 | 142 | 34826 | 37555 | 3.4 | 3.4 | 3.4 | 348 | 356 | 354 | – | – | – | – | – | – | – | – | – | Cc1c(C)n2c(/C=C/c3ccc(NC(=O)OC(C)(C)C)cc3)c(C)c(=O)n2c1=O [Compound 7i, tert-butyl (E)-(4-(2-(2,5,6-trimethyl-1,7-dioxo-1H,7H-pyrazolo[1,2-a]pyrazol-3-yl)vinyl)phenyl)carbamate] | maximum emission wavelength (λem) ([1]; 50:50 ACN/PBS, excitation at λabs): 583 nm |
| – | – | – | – | – | – | – | – | – | – | – | – | 162 | 159 | 21094 | 20460 | 0.52 | 0.26 | 369 | 375 | Cc1c(C)n2c(/C=C/c3nc4ccc(O)cc4s3)c(C)c(=O)n2c1=O [Compound 8e, (E)-3-(2-(6-hydroxybenzo[d]thiazol-2-yl)vinyl)-2,5,6-trimethyl-1H,7H-pyrazolo[1,2-a]pyrazole-1,7-dione] | – |
| 504 | 156 | 146 | 25659 | 34554 | 3.3 | 3.5 | 3.5 | 342 | 348 | – | 348 | – | – | – | – | – | – | – | – | COc1ccc(/C=C/c2c(C)c(=O)n3c(=O)c(C)c(C)n23)cc1 [Compound 7g, (E)-3-(4-methoxystyryl)-2,5,6-trimethyl-1H,7H-pyrazolo[1,2-a]pyrazole-1,7-dione] | Fluorescence Lifetime [4]: 1.31 ns; Lifetime ([4]; Table 4): 1.31 ± 0.004 ns; Lifetime ([4]; Table S13): 1.31 ± 0.004 ns |
| – | – | – | – | – | – | – | – | – | – | – | – | 195 | 192 | 29974 | 29304 | 0.4 | 0.16 | 339 | 344 | Cc1c(C)n2c(/C=C/c3nc4ccccc4s3)c(C)c(=O)n2c1=O [Compound 8c, (E)-3-(2-(benzo[d]thiazol-2-yl)vinyl)-2,5,6-trimethyl-1H,7H-pyrazolo[1,2-a]pyrazole-1,7-dione] | – |
| – | – | – | – | – | – | – | – | – | – | – | – | 163 | 157 | 22961 | 22575 | 0.54 | 0.27 | 367 | 373 | COc1ccc2nc(/C=C/c3c(C)c(=O)n4c(=O)c(C)c(C)n34)sc2c1 [Compound 8d, (E)-3-(2-(6-methoxybenzo[d]thiazol-2-yl)vinyl)-2,5,6-trimethyl-1H,7H-pyrazolo[1,2-a]pyrazole-1,7-dione] | – |
| 502 | 152 | 101 | 27699 | 36055 | 1.3 | 1.5 | – | 339 | 350 | – | – | – | – | – | – | – | – | – | – | Cc1c(C)n2c(/C=C/c3ccc(N=[N+]=[N-])cc3)c(C)c(=O)n2c1=O [Compound 7d, (E)-3-(4-azidostyryl)-2,5,6-trimethyl-1H,7H-pyrazolo[1,2-a]pyrazole-1,7-dione] | – |
